# Data published in patent publication US9624188B2, “IDO inhibitors” (BRISTOL-MYERS SQUIBB COMPANY, priority 2013, dated 2017).
# Molecular target: Human IDO1 (Homo sapiens (Human), UniProt P14902)
# Assay: IDO Kynurenine Assay with Human IDO1/HEK293 Cells
# Type: cell-based
# Details: 20 hours incubation, kynurenine detected with Ehrlich reagent, absorbance at 490 nm, read-out: HEK Human IDO-1 IC50
# Procedure: IDO Kynurenine Assay with Human IDO1/HEK293 Cells
# Human IDO1/HEK293 cells were seeded at 10,000 cells per 50 uL per well with RPMI/phenol red free media contains 10% FBS in a 384-well black wall clear bottom tissue culture plate (Matrix Technologies LLC) 125 nL of certain concentration of compound was then added to each well using ECHO liquid handling systems. The cells were incubated for 20 hours in 37° C. incubator with 5% CO2.
# The compound treatments were stopped by adding Trichloroacetic Acid (Sigma-Aldrich) to a final concentration at 0.2%. The cell plate was further incubated at 50° C. for 30 minute. The equal volume supernatant (20 uL) and 0.2% (w/v) Ehrlich reagent (4-dimethylaminobenzaldehyde, Sigma-Aldrich) in glacial acetic acid were mixed in a new clear bottom 384-well plate. This plate was then incubated at room temperature for 30 minute. The absorbance at 490 nm was measured on Envision plate reader.
# Compound IC50 values were calculated using the counts of 500 nM of a reference standard treatment as one hundred percent inhibition, and counts of no compound but DMSO treatment as zero percent inhibition.
# Chain of Human IDO1 (P14902 whole entry): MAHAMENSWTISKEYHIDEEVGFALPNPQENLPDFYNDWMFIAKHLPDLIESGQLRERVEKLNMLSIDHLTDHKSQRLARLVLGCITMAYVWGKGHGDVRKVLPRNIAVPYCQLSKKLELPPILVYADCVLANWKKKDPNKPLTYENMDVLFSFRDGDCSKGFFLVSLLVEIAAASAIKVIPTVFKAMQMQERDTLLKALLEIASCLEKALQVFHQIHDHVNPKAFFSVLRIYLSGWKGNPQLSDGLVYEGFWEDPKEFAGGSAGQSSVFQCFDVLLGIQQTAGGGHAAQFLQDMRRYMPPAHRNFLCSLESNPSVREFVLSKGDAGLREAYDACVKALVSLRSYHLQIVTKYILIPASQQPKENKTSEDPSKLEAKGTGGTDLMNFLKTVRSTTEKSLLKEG
row,Structure (SMILES),IC50
1,"Cc1cc(NC(=O)Nc2cc(C(C)CC(=O)O)ccc2N(CC(C)C)CC(C)C)on1 (racemic) [Example 13, 3-(4-(diisobutylamino)-3-(3-(3-methylisoxazol-5-yl)ureido)phenyl)butanoic acid]",3 nM
2,"Cc1ccc(NC(=O)Nc2cc(C(C)CC(=O)O)ccc2N(CC(C)C)C2CCCCC2)cc1 (racemic) [Example 49, 3-(4-(cyclohexyl(isobutyl)amino)-3-(3-(p-tolyl)ureido)phenyl)butanoic acid]",1 nM
3,"Cc1ccc(NC(=O)Nc2cc(C3(CC(=O)O)COC3)ccc2N(CC(C)C)CC(C)C)cc1 [Example 2, 2-(3-(4-(diisobutylamino)-3-(3-(p-tolyl)ureido)phenyl)oxetan-3-yl)acetic acid]",205 nM
4,"CC(C)CN(CC(C)C)c1ccc(C(CC(=O)O)C(F)(F)F)cc1NC(=O)Nc1ccc(F)cc1F (centres unmarked) [Example 30, 3-(3-(3-(2,4-difluorophenyl)ureido)-4-(diisobutylamino)phenyl)-4,4,4-trifluorobutanoic acid]",0.7 nM
5,"CC(C)CN(CC(C)C)c1ccc([C@H](C)CC(=O)O)cc1NC(=O)Nc1cncnc1 [Example 37, (R)-3-(4-(diisobutylamino)-3-(3-(pyrimidin-5-yl)ureido)phenyl)butanoic acid]",11 nM
6,"CC(C)CN(CC(C)C)c1ccc([C@@H](C)CC(=O)O)cc1NC(=O)Nc1cncnc1 [Example 38, (S)-3-(4-(diisobutylamino)-3-(3-(pyrimidin-5-yl)ureido)phenyl)butanoic acid]",29 nM
7,"Cc1ncc(NC(=O)Nc2cc([C@@H](C)CC(=O)O)ccc2N(CC(C)C)CC(C)C)cn1 [Example 39, (S)-3-(4-(diisobutylamino)-3-(3-(2-methylpyrimidin-5-yl)ureido)phenyl)butanoic acid]",169 nM
8,"Cc1ncc(NC(=O)Nc2cc([C@H](C)CC(=O)O)ccc2N(CC(C)C)CC(C)C)cn1 [Example 40, (R)-3-(4-(diisobutylamino)-3-(3-(2-methylpyrimidin-5-yl)ureido)phenyl)butanoic acid]",22 nM
9,"Cc1ccc(NC(=O)Nc2cc([C@@H](C)CC(=O)O)ccc2N(CC(C)C)CC(C)C)cc1 [Example 43, (S)-3-(4-(diisobutylamino)-3-(3-(p-tolyl)ureido)phenyl)butanoic acid]",17 nM
10,"Cc1cc(NC(=O)Nc2cc([C@@H](C)CC(=O)O)ccc2N(CC(C)C)CC(C)C)no1 [Example 44, (S)-3-(4-(diisobutylamino)-3-(3-(5-methylisoxazol-3-yl)ureido)phenyl)butanoic acid]",87 nM
11,"CC(C)CN(CC(C)C)c1ccc([C@H](C)CC(=O)O)cc1NC(=O)Cc1ccc(C#N)cc1 [Example 45, (R)-3-(3-(2-(4-cyanophenyl)acetamido)-4-(diisobutylamino)phenyl)butanoic acid]",5 nM
